Laboratory results as given in patent publication US20250215397A1, “TWO-DIMENSIONAL CULTURE METHOD HAVING CLEAR CHEMICAL COMPOSITION FOR CULTURING THREE-DIMENSIONAL INTESTINAL ORGANOID-DERIVED INTESTINAL STEM CELL AGGREGATE” (KOREA RESEARCH INSTITUTE OF BIOSCIENCE AND BIOTECHNOLOGY, priority 2022, published 2025).
Structures can show the parent of a compound that is named as a salt.

Tests used:
Assay type in all cases: cell-based, human
[1] = tested on: two-dimensional intestinal stem cell population; assay: Differentiation into 2.5-dimensional intestinal epithelial cells by air-liquid interface culture, medium factor screening; settings: minimal medium composition; FIG. 24
Description: The intestinal stem cells grown to a density of 70 to 80% were washed 1-2 times with PBS, and then treated with TE in an incubator at 37° C. for 5 to 7 minutes. The intestinal stem cells isolated into single cells were collected and then diluted using the hIO medium. The cells were gathered by centrifugation, supernatant was removed, the intestinal stem cell culture medium was added thereto and sufficiently mixed, and then the number of cells was measured using Countess III cell counter (Thermo Scientific. Inc.). 2.5-3.5×10^5 cells were placed in an insert of 12-transwell plate (Corning) coated with 1% of Matrigel, and cultured in an incubator. After the cell density reached 100%, the culture medium of an upper layer was completely removed, and the culture medium of a lower layer was replaced with a differentiation medium (2 mM of L-glutamine, 1% of Penicillin-Streptomycin, and 15 mM of a HEPES buffer in Advanced DMEM F12) comprising 200 ng/ml of R-spondin 1 (R&D Systems), 100 ng/ml of EGF (R&D Systems), 2.5 µM of Prostaglandin E2 (Sigma-aldrich), 10 μM of SB202190 (Sigma-aldrich), and 10 mM of nicotinamide (Sigma-aldrich). Thereafter, once every 2 days, a surface of the upper layer was washed with the PBS or hIO medium, and the lower layer was replaced with a new differentiation medium and cultured for 8 to 12 days.

[2] = tested on: two-dimensional intestinal stem cell population; assay: Two-dimensional culture of intestinal stem cell population with removal of medium factors or inhibitor treatment; settings: for role of essential culture medium factor (stemness, proliferation, death): presence or absence of each factor, FIGS. 7-10; for growth of the two-dimensional intestinal stem cell population: treatment with a WNT inhibitor, morphology, FIG. 8
Description: (§1) The three-dimensional intestinal organoids were isolated from a Matrigel dome and the remaining three-dimensional intestinal organoids were removed as much as possible by pipetting. The separated organoids were placed in 1 ml of 0.25% trypsin-EDTA (TE, Invitrogen) and incubated at 37° C. a water bath for about 5 minutes. Then, pipetting was performed less than five times so that the organoids were allowed to be isolated into single cells and small clumps, and a basal medium was added so that the total volume thereof was 10 ml. The cells fed into a centrifuge were placed on culture dishes coated with feeder cells or 1% of Matrigel (Corning). Thereafter, 200 ng/ml of R-spondin 1 (R&D Systems), 100 ng/ml of EGF (R&D Systems), and 2.5 μM of Postaglandin E2 (Sigma-aldrich) were used as main components, cultured in an intestinal stem cell culture medium (2 mM of L-glutamine, 1% of Penicillin-Streptomycin, and 15 mM of HEPES buffer in Advanced DMEM F12) comprising, as an auxiliary component, one or more selected from the group consisting of 1×B27 (Invitrogen), 80 ng/ml of Noggin (R&D Systems), 10 nM of [Leu15]-Gastrin I (Sigma-aldrich), 100 ng/ml of human recombinant WNT3A (R&D Systems), 500 nM of A-83-01 (Tocris), 10 μM of SB202190 (Sigma-aldrich), 1 mM of N-acetylcysteine (Sigma-aldrich), and 10 mM of nicotinamide (Sigma-aldrich), and subcultured every 7 to 10 days. During the first 2 days of subculture, 1 μM of Jagged-1 (Anaspec) and/or 2.5 μM of Y-27632 (Tocirs) were added to the intestinal stem cell culture medium.
To measure viability of a two-dimensional intestinal stem cell population cultured in a culture dish coated with 1% of Matrigel, a kit (LIVE/DEAD Viability/Cytotoxicity Kit, Invitrogen) capable of distinguishing and staining surviving cells and dead cells was used. The surviving cells were stained with calcein-AM, and the dead cells were stained with ethidium homodimer-1. The stained cells were observed through a fluorescence microscope (Olympus).
(§2) The two-dimensional intestinal stem cell population was plated on a culture dish coated with 1% of Matrigel and then cultured for 2 to 7 days. Thereafter, the culture medium was removed, and washing was performed 1 to 2 times with PBS (Sigma-aldrich), and TE (Invitrogen) was added thereto to detach the cells. After centrifugation, a medium was added to isolate the cells into single cells, and then the number of cells was measured using CountessIII cell counter (Thermo Scientific. Inc.).
The intestinal stem cell population was fixed with 4% of paraformaldehyde (PFA) and stained with 0.02% of crystal violet solution (Sigma-aldrich) at room temperature for 10 minutes. Thereafter, images were acquired after washing three times with sterile water. A colony size of the intestinal stem cell population was analyzed using Image J software (National Institute of Health).

[3] = tested on: two-dimensional intestinal stem cell population; assay: Subculture of two-dimensional intestinal stem cells, engraftment / cell number; settings: for need for long-term subculturing: factor removed from culture medium, subculture, FIG. 12; for subculture efficiency: added during subculture; for subculture efficiency / cell engraftment during subculture: FIG. 13; for cell engraftment during subculture: treatment during subculture
Description: as §1, §2

Compound: CCCCC[C@H](O)/C=C/[C@H]1[C@H](O)CC(=O)[C@@H]1C/C=C\CCCC(=O)O [PGE2, prostaglandin E2]
- effect on differentiation into intestinal epithelial cells [1]: excellent effect on differentiation into intestinal epithelial cells
- role of essential culture medium factor (stemness, proliferation, death) [2]: modulate the proliferation of the intestinal stem cell population

Compound: EGF: receptor tyrosine kinase ligand, epidermal growth factor (NSDSECPLSHDGYCLHDGVCMYIEALDKYACNCVVGYIGERCQYRDLKWWELR; Epidermal growth factor; UniProt P01133 971-1023, looked up)
- effect on differentiation into intestinal epithelial cells [1]: excellent effect on differentiation into intestinal epithelial cells
- role of essential culture medium factor (stemness, proliferation, death) [2]: prevent death of intestinal stem cell population and modulate proliferation

Compound: Cc1cc(-c2ccc(CC(=O)Nc3ccc(-c4cccnc4)cc3)cc2)ccn1 [WNT-C59]
- growth of the two-dimensional intestinal stem cell population [2]: growth is inhibited

Compound: CC(=O)N[C@@H](CS)C(=O)O [N-acetylcysteine]
- need for long-term subculturing [3]: required to more efficiently perform long-term culturing

Compound: Oc1nc(-c2ccc(C(F)(F)F)cc2)nc2c1CSCC2 [XAV939]
- growth of the two-dimensional intestinal stem cell population [2]: growth is inhibited

Compound: CCCC(CCC)C(=O)O [valproic acid]
- subculture efficiency [3]: subculture efficiency is increased
- cell engraftment during subculture [3]: cell engraftment increases

Compound: C[C@@H](N)[C@H]1CC[C@H](C(=O)Nc2ccncc2)CC1 [Y-27632, R-(+)-trans-4-(1-aminoethyl)-N-(4-pyridyl) cyclohexanecarboxamidedihydrochloridemonohydrate]
- subculture efficiency [3]: subculture efficiency is increased
- cell engraftment during subculture [3]: cell engraftment increases

Compound: NC(=O)c1cccnc1 [nicotinamide]
- effect on differentiation into intestinal epithelial cells [1]: excellent effect on differentiation into intestinal epithelial cells
- need for long-term subculturing [3]: required to more efficiently perform long-term culturing

Compound: Jagged-1: Notch activator
- subculture efficiency [3]: subculture efficiency is increased
- cell engraftment during subculture [3]: cell engraftment increases

Compound: Oc1ccc(-c2nc(-c3ccncc3)c(-c3ccc(F)cc3)[nH]2)cc1 [SB202190]
- effect on differentiation into intestinal epithelial cells [1]: excellent effect on differentiation into intestinal epithelial cells
- need for long-term subculturing [3]: required to more efficiently perform long-term culturing

Compound: Cc1cccc(-c2nn(C(=S)Nc3ccccc3)cc2-c2ccnc3ccccc23)n1 [A-83-01]
- need for long-term subculturing [3]: required to more efficiently perform long-term culturing

Compound: O=C(NOC[C@H](O)CO)c1ccc(F)c(F)c1Nc1ccc(I)cc1F [PD0325901]
- cell proliferation of the two-dimensional intestinal stem cell population ([2]; EGF inhibitor treatment, morphology and live/dead assay, FIG. 9): cell proliferation is inhibited
